Results: publication PMC11605156, “Triterpenoids from Ganoderma lucidum inhibit cytochrome P450 enzymes interfering with the metabolic process of specific clinical drugs” (Frontiers in Pharmacology, 2024)

Assays:
[1] = target: CYP2C9 (Homo sapiens, UniProt P11712); assay: CYP2C9 inhibition, probe/drug metabolism in human liver microsomes
Protocol: (§1) The total volume of the in vitro metabolic incubation system is 200 μL. The probe substrate concentration in the system is shown in Supplementary Table S1. […] The reaction sample was preheated in a constant temperature mixer at 37°C. Then NADP^+ was added to the system to initiate the reaction. The reaction time is 30 min, and 100 μL acetonitrile will be added on time to quickly terminate the reaction, followed by centrifugation at 4°C and 20,000 g for 20 min. The supernatant was analyzed using liquid chromatography tandem mass spectrometry (LC-MS/MS), and the activity of CYP enzymes was evaluated by the generation of probe metabolites. The mass spectrometry information of probe substrates is shown in Supplementary Table S3.
(§2) The isolated triterpenoids (1–66) were used to establish a compounds library. The inhibitory effects of 66 triterpenoids from G. lucidum on seven subtypes of CYP enzymes (CYP1A2, 2A6, 2D6, 2B6, 2C9, 2C19, 3A4) were evaluated followed the above-mentioned experimental procedures.
For 16 clinical drugs metabolized by CYP enzymes, potential DDI studies were conducted on triterpenoids (6, 25) of G. lucidum, and IC50 values were measured.
Clinical drugs: Phenacetin, melatonin, clozapine and riluzole are metabolized by CYP1A2. Bupropion, artemisinin, efavirenz and sertraline are metabolized by CYP2B6. Diclofenac, valsartan, glimepiride and glibenclamide are metabolized by CYP2C9. Midazolam, imatinib, simvastatin and diltiazem are metabolized by CYP3A4.
(§3) Table S1. The information of probes for CYPs activity assay
Table S2. Information of clinical drugs

[2] = target: T1, CYP2A6 (Homo sapiens, UniProt P11509); assay: CYP2A6 inhibition, coumarin probe in human liver microsomes; conditions: human, human liver microsomes, pH 7.4, probe coumarin 2 μM, Residual activity (%) CYP2A6, HLM 0.5 mg/mL
T1 sequence (P11509 1-494): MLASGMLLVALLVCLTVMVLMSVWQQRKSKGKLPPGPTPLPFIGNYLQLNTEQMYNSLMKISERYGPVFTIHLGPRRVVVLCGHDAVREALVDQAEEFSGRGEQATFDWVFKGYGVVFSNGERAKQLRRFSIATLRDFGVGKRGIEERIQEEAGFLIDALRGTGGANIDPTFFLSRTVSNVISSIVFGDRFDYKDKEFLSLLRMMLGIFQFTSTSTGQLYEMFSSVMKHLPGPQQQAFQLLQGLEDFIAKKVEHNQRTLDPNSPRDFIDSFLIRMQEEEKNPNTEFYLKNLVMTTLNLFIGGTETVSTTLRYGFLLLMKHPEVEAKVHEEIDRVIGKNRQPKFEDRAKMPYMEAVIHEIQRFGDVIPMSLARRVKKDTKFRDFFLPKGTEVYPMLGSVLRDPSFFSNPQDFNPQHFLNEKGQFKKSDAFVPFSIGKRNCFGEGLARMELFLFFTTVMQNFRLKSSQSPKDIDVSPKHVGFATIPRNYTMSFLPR
Protocol: as §1, §2, §3

[3] = target: CYP2D6 (Homo sapiens, UniProt P10635); assay: CYP2D6 inhibition, dextromethorphan probe in human liver microsomes; conditions: human, human liver microsomes, pH 7.4, probe dextromethorphan 5 μM, Residual activity (%) CYP2D6, HLM 0.5 mg/mL
Protocol: as §1, §2, §3

Sequence of CYP2C9 (P11712 whole entry): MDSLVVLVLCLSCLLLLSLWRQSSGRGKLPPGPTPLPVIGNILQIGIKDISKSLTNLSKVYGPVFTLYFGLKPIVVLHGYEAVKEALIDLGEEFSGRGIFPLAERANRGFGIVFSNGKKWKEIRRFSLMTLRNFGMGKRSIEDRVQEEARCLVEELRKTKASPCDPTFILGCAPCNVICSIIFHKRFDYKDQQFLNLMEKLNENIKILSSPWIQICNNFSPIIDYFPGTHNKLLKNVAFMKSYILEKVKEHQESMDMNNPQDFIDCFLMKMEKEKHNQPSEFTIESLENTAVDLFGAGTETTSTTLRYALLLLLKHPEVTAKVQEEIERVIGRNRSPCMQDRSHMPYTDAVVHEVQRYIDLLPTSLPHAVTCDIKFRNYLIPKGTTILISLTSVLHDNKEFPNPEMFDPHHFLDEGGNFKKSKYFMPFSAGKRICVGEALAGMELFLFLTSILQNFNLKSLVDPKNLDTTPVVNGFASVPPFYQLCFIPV
Sequence of CYP2D6 (P10635 whole entry): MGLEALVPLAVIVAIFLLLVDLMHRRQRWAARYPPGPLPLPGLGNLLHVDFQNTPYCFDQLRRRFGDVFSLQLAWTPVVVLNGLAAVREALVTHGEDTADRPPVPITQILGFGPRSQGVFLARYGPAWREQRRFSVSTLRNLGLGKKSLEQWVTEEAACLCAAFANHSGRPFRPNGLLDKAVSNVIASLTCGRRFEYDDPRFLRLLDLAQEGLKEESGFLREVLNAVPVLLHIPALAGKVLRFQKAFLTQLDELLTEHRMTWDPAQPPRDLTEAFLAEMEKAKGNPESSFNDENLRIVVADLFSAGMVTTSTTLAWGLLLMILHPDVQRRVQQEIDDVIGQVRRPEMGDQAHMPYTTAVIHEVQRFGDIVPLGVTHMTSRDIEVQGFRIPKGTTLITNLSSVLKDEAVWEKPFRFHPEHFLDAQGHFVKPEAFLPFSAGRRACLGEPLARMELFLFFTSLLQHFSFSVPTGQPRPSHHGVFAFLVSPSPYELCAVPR

With `CC(CCC(O)C(C)(O)CO)C1CCC2(C)C3=C(C(=O)CC12C)C1(C)CCC(=O)C(C)(C)C1CC3` (stereo not shown) [Compound 25, ganodrol C] the IC50 ([1]; IC50 against metabolism of glibenclamide mediated by CYP2C9, substrate glibenclamide 50 μM, 30 min) was 10.3 ± 0.12 µM, the IC50 ([1]; IC50 against metabolism of glimepiride mediated by CYP2C9, substrate glimepiride 50 μM, 30 min) was 12.3 ± 0.43 µM and the IC50 ([1]; IC50 against metabolism of valsartan mediated by CYP2C9, substrate valsartan 30 μM, 30 min) was 14.3 ± 1.14 µM. The IC50 at 30 min ([1]; human, human liver microsomes, pH 7.4, probe diclofenac 4 μM, IC50 against CYP 2C9, substrate diclofenac 4 μM, HLM) was 11.4 µM, the activity at 30 min ([1]; human, human liver microsomes, pH 7.4, probe diclofenac 4 μM, Residual activity (%) CYP2C9, HLM 0.5 mg/mL, diclofenac 4 μM, 30 min) was 32 ± 2.74% and the activity at 30 min [2] was 70.1 ± 2.15%. For the same compound, the activity at 30 min [3] was 68.22 ± 0.44%.
